Experimental data published in ChEMBL document CHEMBL5331063, “Recent advances of β-catenin small molecule inhibitors for cancer therapy: Current development and future perspectives” (Eur J Med Chem, 2022).
One block for each compound: values may come before it.

Columns and labels:
[1] = tested on: HCT-116; assay: Antiproliferative activity against human HCT-116 cells assessed as inhibition of cell growth by MTS assay; type: functional, cell-based
[2] = tested on: SW480; assay: Antiproliferative activity against human SW480 cells assessed as inhibition of cell growth by MTS assay; type: functional, cell-based
[3] = tested on: HT-29; assay: Antiproliferative activity against human HT-29 cells assessed as inhibition of cell growth by MTS assay; type: functional, cell-based
[4] = target: T1, TCF4-CTNNB1 complex (Homo sapiens, UniProt P35222+Q9NQB0); assay: Inhibition of beta-Catenin/GST-tagged TCF4 protein-protein interaction in human HCT-116 cells incubated for 24 hrs by immunoprecipitation assay; type: cell-based
T1 sequence (P35222 whole entry): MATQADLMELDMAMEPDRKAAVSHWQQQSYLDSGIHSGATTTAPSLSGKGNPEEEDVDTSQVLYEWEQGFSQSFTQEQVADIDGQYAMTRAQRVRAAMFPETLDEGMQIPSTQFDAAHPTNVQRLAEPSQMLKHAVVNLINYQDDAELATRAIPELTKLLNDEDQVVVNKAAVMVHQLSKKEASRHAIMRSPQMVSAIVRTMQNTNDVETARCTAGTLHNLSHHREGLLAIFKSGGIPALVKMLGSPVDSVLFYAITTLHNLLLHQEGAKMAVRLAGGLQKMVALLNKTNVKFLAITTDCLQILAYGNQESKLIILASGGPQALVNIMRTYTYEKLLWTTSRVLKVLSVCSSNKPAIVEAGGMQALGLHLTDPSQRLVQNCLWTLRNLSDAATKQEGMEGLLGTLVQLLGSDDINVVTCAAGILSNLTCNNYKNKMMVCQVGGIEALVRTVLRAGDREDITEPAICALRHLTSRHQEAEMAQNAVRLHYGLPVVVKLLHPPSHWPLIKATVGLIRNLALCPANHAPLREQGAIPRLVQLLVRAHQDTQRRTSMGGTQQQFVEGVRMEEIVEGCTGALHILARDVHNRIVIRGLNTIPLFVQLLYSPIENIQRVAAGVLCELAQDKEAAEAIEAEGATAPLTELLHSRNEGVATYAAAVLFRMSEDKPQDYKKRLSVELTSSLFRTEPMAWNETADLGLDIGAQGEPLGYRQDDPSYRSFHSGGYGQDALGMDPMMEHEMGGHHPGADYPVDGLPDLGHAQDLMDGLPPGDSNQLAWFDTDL
T1 sequence (P15884 whole entry): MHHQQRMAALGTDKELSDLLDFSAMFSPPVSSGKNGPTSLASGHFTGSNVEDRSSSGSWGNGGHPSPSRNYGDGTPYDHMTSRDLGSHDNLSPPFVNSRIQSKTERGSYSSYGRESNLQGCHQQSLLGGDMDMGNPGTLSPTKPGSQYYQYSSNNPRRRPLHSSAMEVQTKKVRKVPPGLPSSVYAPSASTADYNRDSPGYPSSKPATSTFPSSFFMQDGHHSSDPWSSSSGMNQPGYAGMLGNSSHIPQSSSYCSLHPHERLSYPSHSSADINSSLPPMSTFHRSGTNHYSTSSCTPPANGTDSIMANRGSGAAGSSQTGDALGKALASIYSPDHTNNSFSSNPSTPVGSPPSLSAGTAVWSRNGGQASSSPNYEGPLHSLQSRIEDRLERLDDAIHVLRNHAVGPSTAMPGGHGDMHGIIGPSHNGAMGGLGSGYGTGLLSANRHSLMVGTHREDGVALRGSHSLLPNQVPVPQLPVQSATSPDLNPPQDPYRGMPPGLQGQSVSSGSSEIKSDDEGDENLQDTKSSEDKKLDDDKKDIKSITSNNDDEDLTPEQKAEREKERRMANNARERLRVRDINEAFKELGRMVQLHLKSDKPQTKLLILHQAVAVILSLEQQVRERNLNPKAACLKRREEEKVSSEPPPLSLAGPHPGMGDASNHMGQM

[5] = target: T1, TCF4-CTNNB1 complex; assay: Inhibition of human beta-Catenin/GST-tagged TCF4 (unknown origin) protein-protein interaction incubated for 2 hrs by ELISA assay; type: protein-complex assay
[6] = tested on: NCM460; assay: Cytotoxicity against human NCM460 cells incubated for 48 hrs by MTT assay; type: toxicity, cell-based; conditions: ncm460, 48 h
[7] = tested on: HCT-116; assay: Cytotoxicity against human HCT-116 cells incubated for 48 hrs by MTT assay; type: functional
[8] = tested on: SW480; assay: Cytotoxicity against human SW480 cells incubated for 48 hrs by MTT assay; type: functional
[9] = target: T2, beta-catenin-B-cell lymphoma 9 protein complex (Homo sapiens, UniProt O00512+P35222); assay: Inhibition of Flag-tagged beta-Catenin (unknown origin)/Flag-tagged BCL9 (unknown origin) protein-protein interaction assessed as inhibition constant by ELISA assay; type: protein-complex assay
T2 sequence (P35222 whole entry): T1 sequence (P35222 whole entry)
T2 sequence (O00512 whole entry): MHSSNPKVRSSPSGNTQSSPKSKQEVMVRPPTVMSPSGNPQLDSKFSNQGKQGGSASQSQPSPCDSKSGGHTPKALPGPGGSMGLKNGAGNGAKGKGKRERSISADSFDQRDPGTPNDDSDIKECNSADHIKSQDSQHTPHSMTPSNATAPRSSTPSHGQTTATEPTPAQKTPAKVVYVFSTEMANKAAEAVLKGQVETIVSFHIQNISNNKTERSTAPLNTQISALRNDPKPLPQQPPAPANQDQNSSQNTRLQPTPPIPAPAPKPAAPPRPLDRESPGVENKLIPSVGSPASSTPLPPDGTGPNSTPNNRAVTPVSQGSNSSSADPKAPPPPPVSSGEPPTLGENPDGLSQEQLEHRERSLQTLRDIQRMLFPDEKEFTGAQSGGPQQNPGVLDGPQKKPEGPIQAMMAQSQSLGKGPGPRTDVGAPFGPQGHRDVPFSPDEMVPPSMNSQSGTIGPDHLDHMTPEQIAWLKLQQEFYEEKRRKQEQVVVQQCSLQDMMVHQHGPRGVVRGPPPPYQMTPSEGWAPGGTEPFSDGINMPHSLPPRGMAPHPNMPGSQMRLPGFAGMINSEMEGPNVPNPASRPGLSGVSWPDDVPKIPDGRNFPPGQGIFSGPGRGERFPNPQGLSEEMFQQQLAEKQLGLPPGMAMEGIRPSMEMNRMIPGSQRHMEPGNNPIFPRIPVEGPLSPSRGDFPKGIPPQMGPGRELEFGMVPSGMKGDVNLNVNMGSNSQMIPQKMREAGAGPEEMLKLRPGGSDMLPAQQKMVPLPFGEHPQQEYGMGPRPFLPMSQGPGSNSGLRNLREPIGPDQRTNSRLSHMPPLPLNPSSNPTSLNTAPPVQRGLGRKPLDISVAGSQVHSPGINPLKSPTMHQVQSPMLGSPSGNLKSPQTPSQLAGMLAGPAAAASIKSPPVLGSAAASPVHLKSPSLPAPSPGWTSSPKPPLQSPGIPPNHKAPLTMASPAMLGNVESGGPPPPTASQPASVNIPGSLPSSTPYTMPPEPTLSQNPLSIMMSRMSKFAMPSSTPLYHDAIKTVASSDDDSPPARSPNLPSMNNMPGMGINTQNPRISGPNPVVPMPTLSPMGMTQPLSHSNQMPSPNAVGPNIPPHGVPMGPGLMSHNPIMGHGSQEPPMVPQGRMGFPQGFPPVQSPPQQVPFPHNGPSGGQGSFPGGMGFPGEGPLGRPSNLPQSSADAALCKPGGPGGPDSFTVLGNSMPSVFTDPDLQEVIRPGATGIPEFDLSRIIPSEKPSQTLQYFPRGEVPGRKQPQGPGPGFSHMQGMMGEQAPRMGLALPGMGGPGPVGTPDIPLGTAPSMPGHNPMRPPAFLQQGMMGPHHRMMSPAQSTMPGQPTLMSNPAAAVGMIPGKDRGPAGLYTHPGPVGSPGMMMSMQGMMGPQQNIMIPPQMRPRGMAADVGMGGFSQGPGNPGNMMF

[10] = Inhibition of beta-Catenin S33Y mutant/TCF4 protein-protein interaction in human SNU-398 cells incubated for 24 hrs by TOPFLASH reporter assay; type: cell-based
[11] = target: T3, TCF4-CTNNB1 complex (Homo sapiens, UniProt P15884+P35222); assay: Inhibition of wild type beta-Catenin/TCF4 protein-protein interaction in human Hep3B cells incubated for 24 hrs by TOPFLASH reporter assay; type: cell-based
T3 sequence (P35222 whole entry): T1 sequence (P35222 whole entry)
T3 sequence (P15884 whole entry): T1 sequence (P15884 whole entry)

[12] = target: T3, TCF4-CTNNB1 complex; assay: Inhibition of beta-Catenin (301 to 670 residues)/TCF4 protein-protein interaction in human HCT-116 cells incubated for 20 hrs by TOPFLASH luciferase reporter assay; type: cell-based
[13] = tested on: HCT-116; assay: Antitumor activity against human HCT-116 cells xenografted with mouse assessed as reduction in tumor size at 100 mg/kg,ip administrated 3 times per week for 11 days; type: functional; set-up: scale not given: the % may be the effect or the level left; conditions: time 11 day
[14] = tested on: HCT-116; assay: Antitumor activity against human HCT-116 cells xenografted with mouse assessed as reduction in tumor size at 20 mg/kg,ip administrated 3 times per week for 11 days; type: functional; set-up: scale not given: the % may be the effect or the level left; conditions: time 11 day

Structure (SMILES): C=C1C(=O)C23[C@H](O)C[C@@H]4C(C)(C)[C@@H](OC(C)=O)CC[C@@]4(C)[C@@H]2[C@@H]2O[C@@H]2C1[C@H]3O (some centres undefined)
Activity [6]: 10%
Activity [7]: >95%
Activity [8]: >95%

Structure (SMILES): CC(C)c1cc2c(c(O)c1O)[C@@]1(C(=O)O)CCCC(C)(C)C1CC2 (some centres undefined)
Ki [9]: 3.3 µM

Structure (SMILES): O=c1ccc2cc(O)c(O)cc2o1 [ESCULETIN]
Activity [13]: 64%
Activity [14]: 44%

The next lines start with the values.

IC50 [1]: 10 µM
IC50 [2]: 28.7 µM
IC50 [3]: 10 µM
Structure (SMILES): CCOC(=O)CC[C@H](NC(=O)[C@H](CC(=O)OCC)NC(=O)[C@H](Cc1ccc2ccccc2c1)NC(=O)Cc1cc2cc(Cl)ccc2[nH]1)C(=O)OC

IC50 [4]: 10 µM
IC50 [5]: 4.1 µM
Structure (SMILES): COc1c(CC(C)OC(=O)c2c(C)cc(O)cc2C)c2c3c(CC(C)OC(=O)c4c(C)cc(O)cc4O)c(OC)c(=O)c4c(O)cc(OC)c(c5c(OC)cc(O)c(c1=O)c52)c43 (centres undefined)

IC50 [10]: 32 µM
IC50 [11]: 25 µM
Structure (SMILES): O=C(Nc1cnn(Cc2ccc(F)cc2)c1)C1CC1c1ccccc1 (centres undefined)

IC50 [12]: 0.53 µM
Structure (SMILES): COC(=O)c1cccc(NS(=O)(=O)c2ccc(OC)cc2)c1
